Measured values reported in US20220008359A1, “COMBINATION ANTI-CANCER PRODUCTS AND METHODS” (priority 2020, published 2022).
Marks after values point to notes of the source that are not given here.

Legend:
H1650 cells (wild type) = experiment: In-cell immunostaining of protein expression and phosphorylation, H1650 wild type cells; type: cell-based, human; details: H1650 WT, 6 h; VEH = 100
Procedure: (§1) Assessments of protein expression and protein phosphorylation. Multi-channel fluorescence HCS microscopes perform true in-cell western blotting. Three independent cultures derived from three thawed vials of cells of a tumor were sub-cultured into individual 96-well plates. Twenty-four hours after plating, the cells are transfected with a control plasmid or a control siRNA, or with an empty vector plasmid or with plasmids to express various proteins. After another 24 hours, the cells are ready for drug exposure(s). At various time-points after the initiation of drug exposure, cells are fixed in place using paraformaldehyde and using Triton X100 for permeabilization. Standard immunofluorescent blocking procedures are employed, followed by incubation of different wells with a variety of validated primary antibodies and subsequently validated fluorescent-tagged secondary antibodies are added to each well. The microscope determines the background fluorescence in the well and in parallel randomly determines the mean fluorescent intensity of 100 cells per well.

[1] = system: osimertinib-resistant (OR) H1975 cells; experiment: In-cell immunostaining of protein expression and phosphorylation, osimertinib-resistant H1975 cells; type: cell-based, human; set-up: HDAC 1 expression / HDAC 2 expression / HDAC 3 expression / HDAC 4 expression / HDAC 5 expression / HDAC 6 expression / HDAC 7 expression / HDAC 8 expression / HDAC 9 expression / HDAC 10 expression / HDAC 11 expression: scale not given here; details: 6 h
Procedure: Generation of erlotinib, afatinib and osimertinib-resistant cells. Cells were incubated in vitro with increasing concentrations of vehicle control or erlotinib or osimertinib until after ˜6 weeks the HCC827 and H1975 and H1650 cells grew with similar kinetics to sensitive cells in either erlotinib ([…]) or osimertinib ([…]), respectively. Afatinib-resistant cells were created in vivo by repeated high dosing until tumors disappeared and then regrew, as previously described.
as §1

[2] = 1975 OR, GZ17-6.02 2 mM final curcumin, pemetrexed 500 nM
[3] = 1975 OR, GZ17-6.02 2 mM final curcumin, pemetrexed 500 nM, vehicle 100%
[4] = 1975 OR, GZ17-6.02, pemetrexed 500 nM, vehicle 100%

Question: For Nc1nc2[nH]cc(CCc3ccc(C(=O)N[C@@H](CCC(=O)O)C(=O)O)cc3)c2c(=O)[nH]1 [PEM, Pemetrexed], which BCL-XL expression (H1650 cells (wild type)) is on record?
Answer: Its BCL-XL expression is 84*.

Question: And the ERK2 expression (H1650 cells (wild type))?
Answer: Its ERK2 expression is 100.

Question: What about the FLIP-s expression (H1650 cells (wild type)) of the same compound?
Answer: Its FLIP-s expression is 92.

Question: What about the MCL-1 expression (H1650 cells (wild type)) of the same compound?
Answer: Its MCL-1 expression is 83*.

Question: And the ERK2 expression [1, 2]?
Answer: The ERK2 expression was 101.

Question: What about the “HDAC 1 expression” value [1, 2] of the same compound?
Answer: The value was 97.

Question: What about the “HDAC 2 expression” value [1, 2] of the same compound?
Answer: The value was 93.

Question: And the “HDAC 3 expression” value [1, 2]?
Answer: Its value is 98.

Question: And the “HDAC 4 expression” value [1, 2]?
Answer: The value was 100.

Question: What about the “HDAC 5 expression” value [1, 2] of the same compound?
Answer: Its value is 95.

Question: And the “HDAC 6 expression” value [1, 2]?
Answer: The value was 93.

Question: What about the “HDAC 7 expression” value [1, 2] of the same compound?
Answer: The value was 98.

Question: What about the “HDAC 8 expression” value [1, 2] of the same compound?
Answer: The value was 101.

Question: What about the “HDAC 9 expression” value [1, 2] of the same compound?
Answer: The value was 97.

Question: And the “HDAC 10 expression” value [1, 2]?
Answer: The value was 100.

Question: What about the “HDAC 11 expression” value [1, 2] of the same compound?
Answer: The value was 101.

Question: What about the ATG5 [1, 3] of the same compound?
Answer: The ATG5 was 110%.

Question: What about the Beclin1 [1, 3] of the same compound?
Answer: The Beclin1 was 111%.

Question: And the CD95 [1, 3]?
Answer: The CD95 was 100%.

Question: What about the CHOP [1, 3] of the same compound?
Answer: Its CHOP is 107%.

Question: What about the ERBB1 [1, 3] of the same compound?
Answer: Its ERBB1 is 99%.

Question: What about the ERBB2 [1, 3] of the same compound?
Answer: Its ERBB2 is 100%.

Question: And the ERBB3 [1, 3]?
Answer: Its ERBB3 is 101%.

Question: What about the ERBB4 [1, 3] of the same compound?
Answer: The ERBB4 was 100%.

Question: And the ERK2 [1, 3]?
Answer: Its ERK2 is 100%.

Question: And the FAS-L [1, 3]?
Answer: Its FAS-L is 110%.

Question: And the GRP78 [1, 3]?
Answer: The GRP78 was 115# %.

Question: What about the “P-AMPKα T172” value [1, 3] of the same compound?
Answer: Its value is 112%.

Question: What about the “P-ATG13 S318” value [1, 3] of the same compound?
Answer: Its value is 106%.

Question: And the “P-ATM S1980” value [1, 3]?
Answer: Its value is 109%.

Question: And the P-B1 [1, 3]?
Answer: Its P-B1 is 88%.

Question: And the P-B2 [1, 3]?
Answer: The P-B2 was 92%.

Question: And the P-B3 [1, 3]?
Answer: Its P-B3 is 93%.

Question: What about the P-B4 [1, 3] of the same compound?
Answer: Its P-B4 is 95%.

Question: And the P-ERK1/2 [1, 3]?
Answer: The P-ERK1/2 was 96%.

Question: What about the P-JAK2 [1, 3] of the same compound?
Answer: Its P-JAK2 is 89%.

Question: What about the “P-NFκB S536” value [1, 3] of the same compound?
Answer: The value was 92%.

Question: What about the P-PDGFRβ [1, 3] of the same compound?
Answer: The P-PDGFRβ was 98%.

Question: And the “P-PERK T980” value [1, 3]?
Answer: Its value is 101%.

Question: And the “P-SRC Y416” value [1, 3]?
Answer: The value was 90%.

Question: What about the “P-SRC Y527” value [1, 3] of the same compound?
Answer: Its value is 112%.

Question: And the “P-STAT3 Y705” value [1, 3]?
Answer: The value was 88%.

Question: What about the “P-STAT5 Y694” value [1, 3] of the same compound?
Answer: The value was 87* %.

Question: What about the “P-ULK1 S317” value [1, 3] of the same compound?
Answer: Its value is 103%.

Question: What about the “P-ULK1 S757” value [1, 3] of the same compound?
Answer: The value was 96%.

Question: What about the P-c-MET [1, 3] of the same compound?
Answer: The P-c-MET was 88%.

Question: And the P-c-MT [1, 3]?
Answer: The P-c-MT was 90%.

Question: What about the “P-eIF2α S51” value [1, 3] of the same compound?
Answer: Its value is 101%.

Question: What about the “P-mTOR S2448” value [1, 3] of the same compound?
Answer: The value was 94%.

Question: What about the “P-mTOR S2481” value [1, 3] of the same compound?
Answer: The value was 92%.

Question: What about the PDGFRβ [1, 3] of the same compound?
Answer: The PDGFRβ was 100%.

Question: And the PP1 [1, 3]?
Answer: Its PP1 is 105%.

Question: And the c-KIT [1, 3]?
Answer: Its c-KIT is 101%.

Question: What about the c-MET [1, 3] of the same compound?
Answer: The c-MET was 100%.

Question: And the “p70 S6K” value [1, 3]?
Answer: The value was 101%.

Question: And the “p70 S6K T389” value [1, 3]?
Answer: The value was 98%.

Question: And the JAK2 [1, 4]?
Answer: The JAK2 was 98%.

Question: What about the “P-AKT T308” value [1, 4] of the same compound?
Answer: The value was 87* %.

Question: What about the BCL-XL expression ([1]; H1975 OR, VEH = 100) of the same compound?
Answer: Its BCL-XL expression is 90.

Question: And the ERK2 expression ([1]; H1975 OR, VEH = 100)?
Answer: Its ERK2 expression is 101.

Question: And the FLIP-s expression ([1]; H1975 OR, VEH = 100)?
Answer: The FLIP-s expression was 98.

Question: What about the MCL-1 expression ([1]; H1975 OR, VEH = 100) of the same compound?
Answer: Its MCL-1 expression is 84*.
